The assay relates to P388. Briefly: Cytotoxicity against mouse P388 cells. Particulars: read-out: ED50 (the source's name). Type of assay: functional.

Values after ≈ are worked out from the molar mass of the structure shown.

Consider `C=C(C)C(=O)O[C@H]1C[C@@](C)(OC(C)=O)C(=O)CC[C@H](C)[C@H](O)[C@H]2OC(=O)C(=C)[C@@H]21` [LYCHNOSTATIN 1], for which the EC50 turned out to be 2 µg/mL (≈ 4.9 µM).

Take `C=C(C)C(=O)O[C@H]1C[C@@](C)(OC(C)=O)C(=O)CC[C@H](C)C[C@H]2OC(=O)C(=C)[C@H]12` [LYCHNOSTATIN 2]: the EC50 was found to be 0.19 µg/mL (≈ 0.484 µM).
